How the values were obtained:
Test in all cases: in vitro antibacterial evaluation, MIC by broth dilution
Format in all cases: cell-based
Enterococcus sp. = conditions: broth dilution, 18 hours at 35° C.
Method in brief: (§1)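 MIC, the lowest antibiotic concentration preventing growth, was read across 64-0.06 μg/mL with 5×10^5 CFU/mL inoculum. Method followed NCCLS M7-A2 broth dilution using Mueller-Hinton II; Gram-positive strains covered recent methicillin-, penicillin- and/or vancomycin-resistant clinical isolates.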

Staphylococcus sp. = conditions: broth dilution, 18 hours at 35° C.; for MIC Staphylococcus aureus (GC 1131): strain GC 1131; for MIC Staphylococcus aureus (ATCC 29213): strain ATCC 29213; for MIC Staphylococcus aureus (GC 3051): strain GC 3051; for MIC Staphylococcus aureus (GC 3053): strain GC 3053; for MIC Staphylococcus aureus (GC 4541): strain GC 4541; for MIC Staphylococcus aureus (GC 4542): strain GC 4542; for MIC Staphylococcus aureus-SMITH (GC 4543): strain GC 4543; for MIC Staphylococcus aureus (GC 4544): strain GC 4544; for MIC Staphylococcus aureus (GC 4545): strain GC 4545; for MIC Staphylococcus haemolyticus (GC 4546): strain GC 4546; for MIC Coagulase Negative Staphylococcus (GC 4547): strain GC 4547; for MIC Coagulase Negative Staphylococcus (GC 4548): strain GC 4548; for MIC Coagulase Negative Staphylococcus (GC 4549): strain GC 4549; for MIC Coagulase Negative Staphylococcus (GC 4551): strain GC 4551; for MIC Coagulase Negative Staphylococcus (GC 6257): strain GC 6257
Method in brief: as §1

Streptococcus sp. = conditions: broth dilution, 18 hours at 35° C.
Method in brief: as §1

Escherichia coli = conditions: 18 hours at 35° C.

CC(c1ccccc1)C1NC(=O)CNC(=O)C(CO)NC(=O)C(C(O)C2CNC(=N)N2C2OC(CO)C(O)C(O)C2O)NC(=O)C(C(O)C2CNC(=N)N2)NC(=O)C(Cc2ccc(OC3OC(CO)C(OC4OC5COC(c6ccc(C(=O)c7ccc(I)cc7)cc6)OC5C(O)C4O)C(O)C3O)cc2)NC1=O (stereo not drawn) [Example 186]
0.25 µg/mL: MIC Streptococcus pyogenes (GC 4563) (Streptococcus sp.) | MIC Streptococcus pyogenes (GC 4563) (Streptococcus sp.; inoculum 5×10^5 CFU/mL, strain GC 4563)
<0.06 µg/mL: MIC Streptococcus agalactiae (GC 4564) (Streptococcus sp.) | MIC Streptococcus pneumoniae (ATCC 6301) (Streptococcus sp.) | MIC Streptococcus pneumoniae (GC 1894) (Streptococcus sp.) | MIC Streptococcus pneumoniae (GC 4565) (Streptococcus sp.) | MIC Streptococcus pneumoniae (ATCC 6301) (Streptococcus sp.; inoculum 5×10^5 CFU/mL, strain ATCC 6301) | MIC Streptococcus pneumoniae (GC 1894) (Streptococcus sp.; inoculum 5×10^5 CFU/mL, strain GC 1894) | MIC Streptococcus agalactiae (GC 4564) (Streptococcus sp.; inoculum 5×10^5 CFU/mL, strain GC 4564) | MIC Streptococcus pneumoniae (GC 4565) (Streptococcus sp.; inoculum 5×10^5 CFU/mL, strain GC 4565)
64 µg/mL: MIC Escherichia coli (ATCC 25922) (Escherichia coli) | MIC Escherichia coli (GC 4559) (Escherichia coli)
1 µg/mL: MIC Enterococcus faecalis (GC 6189) (Enterococcus sp.) | MIC Enterococcus faecalis (GC 6189) (Enterococcus sp.; inoculum 5×10^5 CFU/mL, strain GC 6189) | MIC Staphylococcus aureus (GC 4542) (Staphylococcus sp.) | MIC Staphylococcus haemolyticus (GC 4546) (Staphylococcus sp.) | MIC Coagulase Negative Staphylococcus (GC 4548) (Staphylococcus sp.) | MIC Coagulase Negative Staphylococcus (GC 4549) (Staphylococcus sp.)
0.5 µg/mL: MIC Coagulase Negative Staphylococcus (GC 6257) (Staphylococcus sp.)
2 µg/mL: MIC Enterococcus avium (GC 4558) (Enterococcus sp.) | MIC Enterococcus faecalis (ATCC 29212) (Enterococcus sp.) | MIC Enterococcus faecalis (GC 2242) (Enterococcus sp.) | MIC Enterococcus faecalis (GC 2691) (Enterococcus sp.) | MIC Enterococcus faecalis (GC 3059) (Enterococcus sp.) | MIC Enterococcus faecalis (GC 4552) (Enterococcus sp.) | MIC Enterococcus faecalis (GC 4553) (Enterococcus sp.) | MIC Enterococcus faecalis (GC 4554) (Enterococcus sp.) | MIC Enterococcus faecium (GC 2243) (Enterococcus sp.) | MIC Enterococcus faecium (GC 4556) (Enterococcus sp.) | MIC Enterococcus faecium (GC 4557) (Enterococcus sp.) | MIC Enterococcus faecalis (ATCC 29212) (Enterococcus sp.; inoculum 5×10^5 CFU/mL, strain ATCC 29212) | MIC Enterococcus faecalis (GC 2242) (Enterococcus sp.; inoculum 5×10^5 CFU/mL, strain GC 2242) | MIC Enterococcus faecium (GC 2243) (Enterococcus sp.; inoculum 5×10^5 CFU/mL, strain GC 2243) | MIC Enterococcus faecalis (GC 2691) (Enterococcus sp.; inoculum 5×10^5 CFU/mL, strain GC 2691) | MIC Enterococcus faecalis (GC 3059) (Enterococcus sp.; inoculum 5×10^5 CFU/mL, strain GC 3059) | MIC Enterococcus faecalis (GC 4552) (Enterococcus sp.; inoculum 5×10^5 CFU/mL, strain GC 4552) | MIC Enterococcus faecalis (GC 4553) (Enterococcus sp.; inoculum 5×10^5 CFU/mL, strain GC 4553) | MIC Enterococcus faecalis (GC 4554) (Enterococcus sp.; inoculum 5×10^5 CFU/mL, strain GC 4554) | MIC Enterococcus faecium (GC 4556) (Enterococcus sp.; inoculum 5×10^5 CFU/mL, strain GC 4556) | MIC Enterococcus faecium (GC 4557) (Enterococcus sp.; inoculum 5×10^5 CFU/mL, strain GC 4557) | MIC Enterococcus avium (GC 4558) (Enterococcus sp.; inoculum 5×10^5 CFU/mL, strain GC 4558) | MIC Staphylococcus aureus (GC 1131) (Staphylococcus sp.; inoculum 5×10^5 CFU/mL) | MIC Staphylococcus aureus (ATCC 29213) (Staphylococcus sp.) | MIC Staphylococcus aureus (GC 1131) (Staphylococcus sp.) | MIC Staphylococcus aureus (GC 3051) (Staphylococcus sp.) | MIC Staphylococcus aureus (GC 3053) (Staphylococcus sp.) | MIC Staphylococcus aureus (GC 4541) (Staphylococcus sp.) | MIC Staphylococcus aureus-SMITH (GC 4543) (Staphylococcus sp.) | MIC Staphylococcus aureus (GC 4544) (Staphylococcus sp.) | MIC Staphylococcus aureus (GC 4545) (Staphylococcus sp.) | MIC Coagulase Negative Staphylococcus (GC 4547) (Staphylococcus sp.) | MIC Coagulase Negative Staphylococcus (GC 4551) (Staphylococcus sp.)
4 µg/mL: MIC Escherichia coli (GC 4560) (Escherichia coli)

Di-N-(4-tert-butylbenzyl)-cyclo[glycyl-β-methylphenylalanyl-O-(4-O-hexopyranosylhexopyranosyl)tyrosyl-3-(2-iminoimidazolidin-4-yl)seryl-3-(3-hexoopyranosyl-2-iminoimidazolidin-4-yl)serylseryl] [Example 60a]
64 µg/mL: MIC Streptococcus pneumoniae (GC 1894) (Streptococcus sp.) | MIC Streptococcus pneumoniae (GC 1894) (Streptococcus sp.; strain GC 1894)
16 µg/mL: MIC Escherichia coli (GC 4560) (Escherichia coli)
128 µg/mL: MIC Enterococcus avium (GC 4558) (Enterococcus sp.; Enterococcus avium (GC 4558)) | MIC Enterococcus faecalis (GC 4553) (Enterococcus sp.; Enterococcus faecalis (GC 4553)) | MIC Enterococcus faecium (GC 4557) (Enterococcus sp.; Enterococcus faecium (GC 4557)) | MIC Enterococcus avium (GC 4558) (Enterococcus sp.) | MIC Enterococcus faecalis (GC 4553) (Enterococcus sp.) | MIC Enterococcus faecium (GC 4557) (Enterococcus sp.) | MIC Streptococcus pneumoniae (GC 4565) (Streptococcus sp.) | MIC Streptococcus pneumoniae (GC 4565) (Streptococcus sp.; strain GC 4565)
>128 µg/mL: MIC Enterococcus faecalis (ATCC 29212) (Enterococcus sp.; Enterococcus faecalis (ATCC 29212)) | MIC Enterococcus faecalis (GC 4552) (Enterococcus sp.; Enterococcus faecalis (GC 4552)) | MIC Enterococcus faecalis (GC 4554) (Enterococcus sp.; Enterococcus faecalis (GC 4554)) | MIC Enterococcus faecalis (GC 6189) (Enterococcus sp.; Enterococcus faecalis (GC 6189)) | MIC Enterococcus faecium (GC 2243) (Enterococcus sp.; Enterococcus faecium (GC 2243)) | MIC Enterococcus faecium (GC 4556) (Enterococcus sp.; Enterococcus faecium (GC 4556)) | MIC Enterococcus faecalis (ATCC 29212) (Enterococcus sp.) | MIC Enterococcus faecalis (GC 2242) (Enterococcus sp.) | MIC Enterococcus faecalis (GC 2691) (Enterococcus sp.) | MIC Enterococcus faecalis (GC 3059) (Enterococcus sp.) | MIC Enterococcus faecalis (GC 4552) (Enterococcus sp.) | MIC Enterococcus faecalis (GC 4554) (Enterococcus sp.) | MIC Enterococcus faecalis (GC 6189) (Enterococcus sp.) | MIC Enterococcus faecium (GC 2243) (Enterococcus sp.) | MIC Enterococcus faecium (GC 4556) (Enterococcus sp.) | MIC Enterococcus faecalis (GC 2242) (Enterococcus sp.; strain GC 2242) | MIC Enterococcus faecalis (GC 2691) (Enterococcus sp.; strain GC 2691) | MIC Enterococcus faecalis (GC 3059) (Enterococcus sp.; strain GC 3059) | MIC Staphylococcus aureus (ATCC 29213) (Staphylococcus sp.) | MIC Staphylococcus aureus (GC 1131) (Staphylococcus sp.) | MIC Staphylococcus aureus (GC 3051) (Staphylococcus sp.) | MIC Staphylococcus aureus (GC 3053) (Staphylococcus sp.) | MIC Staphylococcus aureus (GC 4541) (Staphylococcus sp.) | MIC Staphylococcus aureus (GC 4542) (Staphylococcus sp.) | MIC Staphylococcus aureus-SMITH (GC 4543) (Staphylococcus sp.) | MIC Staphylococcus aureus (GC 4544) (Staphylococcus sp.) | MIC Staphylococcus aureus (GC 4545) (Staphylococcus sp.) | MIC Staphylococcus haemolyticus (GC 4546) (Staphylococcus sp.) | MIC Coagulase Negative Staphylococcus (GC 4547) (Staphylococcus sp.) | MIC Coagulase Negative Staphylococcus (GC 4548) (Staphylococcus sp.) | MIC Coagulase Negative Staphylococcus (GC 4549) (Staphylococcus sp.) | MIC Coagulase Negative Staphylococcus (GC 4551) (Staphylococcus sp.) | MIC Coagulase Negative Staphylococcus (GC 6257) (Staphylococcus sp.) | MIC Streptococcus agalactiae (GC 4564) (Streptococcus sp.) | MIC Streptococcus pneumoniae (ATCC 6301) (Streptococcus sp.) | MIC Streptococcus pyogenes (GC 4563) (Streptococcus sp.) | MIC Streptococcus pneumoniae (ATCC 6301) (Streptococcus sp.; strain ATCC 6301) | MIC Streptococcus pyogenes (GC 4563) (Streptococcus sp.; strain GC 4563) | MIC Streptococcus agalactiae (GC 4564) (Streptococcus sp.; strain GC 4564) | MIC Escherichia coli (ATCC 25922) (Escherichia coli) | MIC Escherichia coli (GC 4559) (Escherichia coli)
